# In patent publication US12448398B2, “Semi-synthetic analogues of epipolythiodioxopiperazine alkaloids” (Ohio State Innovation Foundation, priority 2019, dated 2025):
# Columns and labels:
# MDA-MB-231 cells = experiment: Cytotoxicity assay, human breast cancer cells; type: cell-based; settings: vs verticillin H
# Description: (§1) Human melanoma cancer cells (MDA-MB-435), human breast cancer cells (MDA-MB-231) and human ovarian cancer cells (OVCAR3) were obtained from the American Type Culture Collection (Manassas, VA). The cell lines were cultured in RPMI 1640 medium containing fetal 10% bovine serum, 100 unites/mL penicillin and 100 μg/mL streptomycin. The cells were grown at 37° C. under 5% CO2, and then harvested during the log-phase growth by trypsinization followed by two washing to remove all traces of enzymes. Cells were seeded in 96-well clear, flat-bottom plate (Microtest 96, Falcon) at a density of 5000 cells per well. Each plate was incubated overnight at 37° C. under 5% CO2. Samples dissolved in DMSO were diluted and added to the appropriate wells to give final concentrations of 20, 4, 0.8, 0.16, and 0.032 μM for pure compounds, and a total volume of 100 μL and 0.5% DMSO per well. […] Cell viability was examined using a commercial absorbance assay (CellTiter 96® AQueous One Solution Cell Proliferation Assay, Promega Corp, Madison, WI). […]
# (§2) Human melanoma cancer cells (MDA-MB-435), human breast cancer cells (MDA-MB-231) and human ovarian cancer cells (OVCAR3) were produced from the American Type Culture Collection (Manassas, VA). […] Cell viability was examined using a commercial absorbance assay (CellTiter 96® AQueous One Solution Cell Proliferation Assay, Promega Corp, Madison, WI). […]
# OVCAR3 cells = experiment: Cytotoxicity assay, human ovarian cancer cells; type: cell-based; settings: vs verticillin H
# Description: as §1, §2
# [1] = tested on: MDA-MB-435, MDA-MB-231 and OVCAR3 cells; experiment: Cytotoxicity assay against a panel of three cancer cell lines (CellTiter 96 AQueous, 72 h); type: cell-based, human; settings: panel MDA-MB-435, MDA-MB-231, OVCAR3; relative to parent natural product
# Description: Human melanoma cancer cells (MDA-MB-435), human breast cancer cells (MDA-MB-231) and human ovarian cancer cells (OVCAR3) were obtained from the American Type Culture Collection (Manassas, VA). The cell lines were cultured in RPMI 1640 medium containing fetal 10% bovine serum, 100 unites/mL penicillin and 100 μg/mL streptomycin. The cells were grown at 37° C. under 5% CO2, and then harvested during the log-phase growth by trypsinization followed by two washing to remove all traces of enzymes. Cells were seeded in 96-well clear, flat-bottom plate (Microtest 96, Falcon) at a density of 5000 cells per well. Each plate was incubated overnight at 37° C. under 5% CO2. Samples dissolved in DMSO were diluted and added to the appropriate wells to give final concentrations of 20, 4, 0.8, 0.16, and 0.032 μM for pure compounds, and a total volume of 100 μL and 0.5% DMSO per well. The cells with the test samples were then incubated for 72 h at 37° C. Cell viability was examined using a commercial absorbance assay (CellTiter 96® AQueous One Solution Cell Proliferation Assay, Promega Corp, Madison, WI). IC50 values were determined as the concentration required to diminish cellular growth by 50% compared to the untreated controls after 72 h of continuous exposure. Taxol (Paclitaxel) was used as a positive control.
# Human melanoma cancer cells (MDA-MB-435), human breast cancer cells (MDA-MB-231) and human ovarian cancer cells (OVCAR3) were produced from the American Type Culture Collection (Manassas, VA). RPMI 1640 medium (fetal 10% bovine serum, 100 unites/mL penicillin and 100 μg/mL streptomycin) was used to culture cell lines. The cells were grown at 37° C. under 5% CO2, then harvested during the log-phase growth by trypsinization followed by two washing to remove all traces of enzymes. 96-well clear, flat-bottom plate (Microtest 96, Falcon) was used to seed the cells at a density of 5000 cells per well. […] Cell viability was examined using a commercial absorbance assay (CellTiter 96® AQueous One Solution Cell Proliferation Assay, Promega Corp, Madison, WI). […]
# MLL1 = MLL1 (Homo sapiens, UniProt Q03164); settings: in pancreatic cancer; cited from earlier work
# [2] = tested on: PANC02-H7 or UN-KC-6141 cells; settings: combination of 3 and anti PD-L1; cited from earlier work
# [3] = tested on: metastatic colon carcinoma; settings: combined treatment of 3 and 5-fluorouracil; cited from earlier work
# [4] = tested on: panel of cancer cell lines; settings: cited from earlier work
# Sequence of MLL1 (Q15291 whole entry): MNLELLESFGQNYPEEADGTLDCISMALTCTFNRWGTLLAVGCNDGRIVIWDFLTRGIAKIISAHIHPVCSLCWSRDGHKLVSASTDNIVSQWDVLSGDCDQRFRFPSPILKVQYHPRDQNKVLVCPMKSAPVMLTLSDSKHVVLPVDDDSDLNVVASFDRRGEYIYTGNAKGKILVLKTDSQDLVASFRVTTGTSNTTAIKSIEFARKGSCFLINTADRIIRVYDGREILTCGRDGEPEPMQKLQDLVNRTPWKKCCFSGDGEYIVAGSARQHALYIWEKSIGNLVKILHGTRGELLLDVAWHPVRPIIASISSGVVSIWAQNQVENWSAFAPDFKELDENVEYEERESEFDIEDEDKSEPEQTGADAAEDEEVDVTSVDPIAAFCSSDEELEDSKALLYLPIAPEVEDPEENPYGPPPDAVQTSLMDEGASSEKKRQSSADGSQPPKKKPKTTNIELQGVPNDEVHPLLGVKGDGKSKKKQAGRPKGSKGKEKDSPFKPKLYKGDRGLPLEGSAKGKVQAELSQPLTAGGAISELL
# Sequence of MLL1 (Q9UBL3 96-628, further chain): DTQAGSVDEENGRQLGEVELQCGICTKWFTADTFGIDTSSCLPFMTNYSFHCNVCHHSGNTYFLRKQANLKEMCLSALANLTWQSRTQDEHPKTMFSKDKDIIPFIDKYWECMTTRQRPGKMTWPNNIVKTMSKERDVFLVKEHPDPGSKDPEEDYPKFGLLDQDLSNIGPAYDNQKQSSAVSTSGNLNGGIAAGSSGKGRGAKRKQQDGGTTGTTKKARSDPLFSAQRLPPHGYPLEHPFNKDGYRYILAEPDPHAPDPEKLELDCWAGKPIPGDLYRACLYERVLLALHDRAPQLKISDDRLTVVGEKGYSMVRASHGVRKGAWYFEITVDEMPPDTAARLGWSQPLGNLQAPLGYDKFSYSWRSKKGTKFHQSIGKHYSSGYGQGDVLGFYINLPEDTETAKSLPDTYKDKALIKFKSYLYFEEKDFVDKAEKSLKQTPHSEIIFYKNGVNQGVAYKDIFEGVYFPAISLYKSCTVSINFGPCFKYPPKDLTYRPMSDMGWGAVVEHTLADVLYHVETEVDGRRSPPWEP
# Sequence of MLL1 (Q03164 3745-3969): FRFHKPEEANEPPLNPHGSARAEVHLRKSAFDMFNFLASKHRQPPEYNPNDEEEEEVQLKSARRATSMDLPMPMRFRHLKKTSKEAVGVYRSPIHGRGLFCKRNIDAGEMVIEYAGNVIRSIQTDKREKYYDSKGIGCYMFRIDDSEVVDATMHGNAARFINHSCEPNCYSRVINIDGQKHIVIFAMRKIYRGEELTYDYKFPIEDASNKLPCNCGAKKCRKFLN
smiles,measurement,setting,value
CC[C@@]12SS[C@]3(C(=O)N1C)[C@@H](O)[C@]1([C@@]45c6ccccc6N[C@@H]4N4C(=O)[C@]6(CC)SS[C@]4(C(=O)N6C)[C@H]5OS(=O)(=O)c4ccc(F)cc4)c4ccccc4N[C@@H]1N3C2=O [Compound 17],Fold loss of potency relative to parent compound,MDA-MB-231 cells,1.6 fold
same,Fold increase of potency relative to parent compound,OVCAR3 cells,2.9 fold
CCOC(=O)O[C@H]1[C@]2([C@@]34c5ccccc5N[C@@H]3N3C(=O)[C@]5(CC)SS[C@]3(C(=O)N5C)[C@H]4O)c3ccccc3N[C@@H]2N2C(=O)[C@]3(CC)SS[C@]12C(=O)N3C [Compound 16],"Potency compared with the parent compound, in words",[1],more potent
same,Fold increase of potency relative to parent compound,MDA-MB-231 cells,4.4 fold
CCCC(=O)O[C@H]1[C@]2([C@@]34c5ccccc5N[C@@H]3N3C(=O)[C@]5(CC)SS[C@]3(C(=O)N5C)[C@H]4O)c3ccccc3N[C@@H]2N2C(=O)[C@]3(CC)SS[C@]12C(=O)N3C [Compound 12],"Potency compared with the parent compound, in words",[1],more potent
CC[C@@]12SS[C@]3(C(=O)N1C)[C@@H](O)[C@]1([C@@]45c6ccccc6N[C@@H]4N4C(=O)[C@]6(CC)SS[C@]4(C(=O)N6C)[C@H]5OC(=O)C(C)(C)C)c4ccccc4N[C@@H]1N3C2=O [Compound 14],"Potency compared with the parent compound, in words",[1],more potent
CC[C@@]12SS[C@]3(C(=O)N1C)[C@@H](O)[C@]1([C@@]45c6ccccc6N[C@@H]4N4C(=O)[C@]6(CC)SS[C@]4(C(=O)N6C)[C@H]5OC(=O)N(C)C)c4ccccc4N[C@@H]1N3C2=O [Compound 19],Fold increase of potency relative to parent compound,OVCAR3 cells,12.0 fold
"CN1C(=O)C23SSC1(C)C(=O)N2C1Nc2ccccc2C1(C12c4ccccc4NC1N1C(=O)C4(C)SSC1(C(=O)N4C)C2O)C3O (centres unmarked) [Compound 3, verticillin A]",IC50,MLL1,800 nM
same,Tumor size,[2],significantly smaller tumor size
same,Tumor size compared to control,[3],significantly smaller tumors
same,"Cytotoxicity level, in words",[4],nanomolar cytotoxicity
